What all share (experiment): relative viability (nuclei count vs DMSO), 5 days (fraction); higher = more cells survive
Compound in the test “Vismodegib + Luminespib”: CS(=O)(=O)c1ccc(C(=O)Nc2ccc(Cl)c(-c3ccccn3)c2)c(Cl)c1 [Vismodegib] + CCNC(=O)c1noc(-c2cc(C(C)C)c(O)cc2O)c1-c1ccc(CN2CCOCC2)cc1 [Luminespib] (partner 0.01 µM)
The method, boiled down: (§1)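 Cells from lung cancer lines were seeded into 1536-well plates and, one day later, dosed by pin tool. Treatments were either a single drug or a fixed dose of an anchor drug with five library-drug doses (not always all listed) in √10 steps. After 5 days, nuclei were stained in a one-step fixation (final 0.05% Triton X-100, 1% formaldehyde, 1 ug/ml Hoechst) and counted on 4× images, and relative viability is the treated-to-vehicle nuclei ratio, as the median of duplicate plates.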

Compound in the test “Vismodegib + Olaparib”: CS(=O)(=O)c1ccc(C(=O)Nc2ccc(Cl)c(-c3ccccn3)c2)c(Cl)c1 [Vismodegib] + O=C(c1cc(Cc2n[nH]c(=O)c3ccccc23)ccc1F)N1CCN(C(=O)C2CC2)CC1 [Olaparib] (partner 8 µM)
The method, boiled down: as §1

Compound in the test “Ruxolitinib + Lapatinib”: N#CC[C@H](C1CCCC1)n1cc(-c2ncnc3[nH]ccc23)cn1 [Ruxolitinib] + CS(=O)(=O)CCNCc1ccc(-c2ccc3ncnc(Nc4ccc(OCc5cccc(F)c5)c(Cl)c4)c3c2)o1 [Lapatinib] (partner 2 µM)
The method, boiled down:
as §1

Compound in the test “Ruxolitinib + Decitabine”: N#CC[C@H](C1CCCC1)n1cc(-c2ncnc3[nH]ccc23)cn1 [Ruxolitinib] + Nc1ncn([C@H]2C[C@H](O)[C@@H](CO)O2)c(=O)n1 [Decitabine] (partner 2 µM)
The method, boiled down: as §1

The source of these data is the supplement of paper PMC10307832.

For NCI-H3122, the relative viability with Vismodegib + Luminespib (first compound 0.08 µM) is 0.109; with Vismodegib + Luminespib (first compound 0.253 µM) it was 0.088; in the test with Vismodegib + Luminespib (first compound 0.8 µM), 0.0658; with Vismodegib + Luminespib (first compound 2.53 µM), 0.073; in the test with Vismodegib + Luminespib (first compound 8 µM) it was 0.0765; with Vismodegib + Olaparib (first compound 0.08 µM) it was 0.613. Moreover, the relative viability was found to be 0.598 with Vismodegib + Olaparib (first compound 0.253 µM); 0.614 with Vismodegib + Olaparib (first compound 0.8 µM); 0.664 with Vismodegib + Olaparib (first compound 2.53 µM); 0.65 in the test with Vismodegib + Olaparib (first compound 8 µM); 0.928 with Ruxolitinib + Lapatinib (first compound 0.08 µM); 1.04 with Ruxolitinib + Lapatinib (first compound 0.253 µM). Also, the relative viability in the test with Ruxolitinib + Lapatinib (first compound 0.8 µM) turned out to be 0.98; with Ruxolitinib + Lapatinib (first compound 2.53 µM), 0.848; with Ruxolitinib + Lapatinib (first compound 8 µM) it was 0.934; with Ruxolitinib + Decitabine (first compound 0.08 µM), 0.47; with Ruxolitinib + Decitabine (first compound 0.253 µM), 0.387; with Ruxolitinib + Decitabine (first compound 0.8 µM), 0.429. The relative viability in the test with Ruxolitinib + Decitabine (first compound 2.53 µM) turned out to be 0.302; in the test with Ruxolitinib + Decitabine (first compound 8 µM), 0.389.
PC-3 [JPC-3]: the relative viability in the test with Vismodegib + Luminespib (first compound 0.08 µM) came to 0.737; in the test with Vismodegib + Luminespib (first compound 0.253 µM) it was 0.651; in the test with Vismodegib + Luminespib (first compound 0.8 µM), 0.689; in the test with Vismodegib + Luminespib (first compound 2.53 µM) it was 0.653; with Vismodegib + Luminespib (first compound 8 µM), 0.745; with Vismodegib + Olaparib (first compound 0.08 µM) it was 1.09. In addition, the relative viability is 1.11 with Vismodegib + Olaparib (first compound 0.253 µM); 1.03 with Vismodegib + Olaparib (first compound 0.8 µM); 1.09 with Vismodegib + Olaparib (first compound 2.53 µM); 1.17 with Vismodegib + Olaparib (first compound 8 µM); 0.452 in the test with Ruxolitinib + Lapatinib (first compound 0.08 µM); 0.431 with Ruxolitinib + Lapatinib (first compound 0.253 µM). The relative viability with Ruxolitinib + Lapatinib (first compound 0.8 µM) came to 0.46; in the test with Ruxolitinib + Lapatinib (first compound 2.53 µM) it was 0.488; in the test with Ruxolitinib + Lapatinib (first compound 8 µM), 0.505; with Ruxolitinib + Decitabine (first compound 0.253 µM), 0.856; in the test with Ruxolitinib + Decitabine (first compound 0.8 µM), 0.899; with Ruxolitinib + Decitabine (first compound 2.53 µM), 0.754. For the same cell line, the relative viability with Ruxolitinib + Decitabine (first compound 8 µM) was found to be 0.718.
Consider PC-14, for which the relative viability with Vismodegib + Luminespib (first compound 0.08 µM) came out at 0.132; in the test with Vismodegib + Luminespib (first compound 0.253 µM), 0.137; with Vismodegib + Luminespib (first compound 0.8 µM) it was 0.151; with Vismodegib + Luminespib (first compound 2.53 µM), 0.165; with Vismodegib + Luminespib (first compound 8 µM) it was 0.14; with Vismodegib + Olaparib (first compound 0.08 µM), 0.262. Further, the relative viability with Vismodegib + Olaparib (first compound 0.253 µM) stood at 0.175; with Vismodegib + Olaparib (first compound 0.8 µM) it was 0.254; in the test with Vismodegib + Olaparib (first compound 2.53 µM), 0.248; in the test with Vismodegib + Olaparib (first compound 8 µM), 0.254; with Ruxolitinib + Lapatinib (first compound 0.253 µM), 0.243; with Ruxolitinib + Lapatinib (first compound 0.8 µM) it was 0.347. The relative viability came to 0.316 with Ruxolitinib + Lapatinib (first compound 2.53 µM); 0.313 with Ruxolitinib + Lapatinib (first compound 8 µM); 0.282 with Ruxolitinib + Decitabine (first compound 0.253 µM); 0.207 with Ruxolitinib + Decitabine (first compound 0.8 µM); 0.153 in the test with Ruxolitinib + Decitabine (first compound 2.53 µM); 0.156 in the test with Ruxolitinib + Decitabine (first compound 8 µM).
Take RERF-LC-KJ: the relative viability was determined as 1.18 in the test with Vismodegib + Luminespib (first compound 0.08 µM); 1.21 in the test with Vismodegib + Luminespib (first compound 0.253 µM); 1.16 with Vismodegib + Luminespib (first compound 0.8 µM); 1.24 in the test with Vismodegib + Luminespib (first compound 2.53 µM); 1.22 with Vismodegib + Luminespib (first compound 8 µM); 0.985 in the test with Vismodegib + Olaparib (first compound 0.08 µM). The relative viability with Vismodegib + Olaparib (first compound 0.253 µM) was determined as 0.826; in the test with Vismodegib + Olaparib (first compound 0.8 µM) it was 0.785; with Vismodegib + Olaparib (first compound 2.53 µM), 0.862; with Vismodegib + Olaparib (first compound 8 µM), 0.96; in the test with Ruxolitinib + Lapatinib (first compound 0.08 µM), 0.926; with Ruxolitinib + Lapatinib (first compound 0.253 µM), 0.859. Also, the relative viability turned out to be 0.898 with Ruxolitinib + Lapatinib (first compound 0.8 µM); 0.909 in the test with Ruxolitinib + Lapatinib (first compound 2.53 µM); 0.855 with Ruxolitinib + Lapatinib (first compound 8 µM); 0.689 with Ruxolitinib + Decitabine (first compound 0.08 µM); 0.812 in the test with Ruxolitinib + Decitabine (first compound 0.253 µM); 0.791 in the test with Ruxolitinib + Decitabine (first compound 0.8 µM). The relative viability with Ruxolitinib + Decitabine (first compound 2.53 µM) stood at 0.719; with Ruxolitinib + Decitabine (first compound 8 µM) it was 0.589.
With SK-LU-1, the relative viability in the test with Vismodegib + Luminespib (first compound 0.08 µM) came out at 0.206; in the test with Vismodegib + Luminespib (first compound 0.253 µM) it was 0.201; with Vismodegib + Luminespib (first compound 0.8 µM), 0.22; with Vismodegib + Luminespib (first compound 2.53 µM), 0.216; with Vismodegib + Luminespib (first compound 8 µM), 0.223; in the test with Vismodegib + Olaparib (first compound 0.08 µM), 0.343. For the same cell line, the relative viability amounted to 0.451 in the test with Vismodegib + Olaparib (first compound 0.253 µM); 0.481 in the test with Vismodegib + Olaparib (first compound 0.8 µM); 0.469 with Vismodegib + Olaparib (first compound 2.53 µM); 0.522 in the test with Vismodegib + Olaparib (first compound 8 µM); 0.973 with Ruxolitinib + Lapatinib (first compound 0.08 µM); 0.991 in the test with Ruxolitinib + Lapatinib (first compound 0.253 µM). For the same cell line, the relative viability in the test with Ruxolitinib + Lapatinib (first compound 0.8 µM) amounted to 0.896; with Ruxolitinib + Lapatinib (first compound 2.53 µM) it was 0.819; in the test with Ruxolitinib + Lapatinib (first compound 8 µM), 0.693; with Ruxolitinib + Decitabine (first compound 0.08 µM) it was 0.547; with Ruxolitinib + Decitabine (first compound 0.253 µM) it was 0.693; with Ruxolitinib + Decitabine (first compound 0.8 µM), 0.755. Moreover, the figures for the relative viability with Ruxolitinib + Decitabine (first compound 2.53 µM) and in the test with Ruxolitinib + Decitabine (first compound 8 µM) were 0.522 and 0.622, respectively.
SK-MES-1: the relative viability came out at 0.775 with Vismodegib + Luminespib (first compound 0.08 µM); 0.765 with Vismodegib + Luminespib (first compound 0.253 µM); 0.849 with Vismodegib + Luminespib (first compound 0.8 µM); 0.853 in the test with Vismodegib + Luminespib (first compound 2.53 µM); 0.922 with Vismodegib + Luminespib (first compound 8 µM); 0.701 in the test with Vismodegib + Olaparib (first compound 0.08 µM). For the same cell line, the relative viability with Vismodegib + Olaparib (first compound 0.253 µM) turned out to be 0.656; in the test with Vismodegib + Olaparib (first compound 0.8 µM) it was 0.62; in the test with Vismodegib + Olaparib (first compound 2.53 µM) it was 0.707; in the test with Vismodegib + Olaparib (first compound 8 µM) it was 0.685; with Ruxolitinib + Lapatinib (first compound 0.08 µM) it was 0.493; in the test with Ruxolitinib + Lapatinib (first compound 0.253 µM), 0.412. The relative viability amounted to 0.448 with Ruxolitinib + Lapatinib (first compound 0.8 µM); 0.474 with Ruxolitinib + Lapatinib (first compound 2.53 µM); 0.42 with Ruxolitinib + Lapatinib (first compound 8 µM); 0.45 with Ruxolitinib + Decitabine (first compound 0.08 µM); 0.362 with Ruxolitinib + Decitabine (first compound 0.253 µM); 0.429 with Ruxolitinib + Decitabine (first compound 0.8 µM). For the same cell line, the figures for the relative viability in the test with Ruxolitinib + Decitabine (first compound 2.53 µM) and in the test with Ruxolitinib + Decitabine (first compound 8 µM) were 0.319 and 0.358, respectively.
As for SW 1573, the relative viability with Vismodegib + Luminespib (first compound 0.253 µM) was determined as 0.216; with Vismodegib + Luminespib (first compound 0.8 µM) it was 0.174; with Vismodegib + Luminespib (first compound 2.53 µM) it was 0.215; with Vismodegib + Luminespib (first compound 8 µM) it was 0.207; with Vismodegib + Olaparib (first compound 0.253 µM) it was 0.487; in the test with Vismodegib + Olaparib (first compound 0.8 µM), 0.476. Besides, the relative viability with Vismodegib + Olaparib (first compound 2.53 µM) is 0.442; with Vismodegib + Olaparib (first compound 8 µM) it was 0.497; with Ruxolitinib + Lapatinib (first compound 0.08 µM) it was 1.05; in the test with Ruxolitinib + Lapatinib (first compound 0.253 µM) it was 0.99; with Ruxolitinib + Lapatinib (first compound 0.8 µM) it was 1.16; in the test with Ruxolitinib + Lapatinib (first compound 2.53 µM) it was 1.07. Besides, the relative viability in the test with Ruxolitinib + Lapatinib (first compound 8 µM) came out at 1.09; in the test with Ruxolitinib + Decitabine (first compound 0.08 µM) it was 0.547; with Ruxolitinib + Decitabine (first compound 0.253 µM), 0.512; in the test with Ruxolitinib + Decitabine (first compound 0.8 µM), 0.667; with Ruxolitinib + Decitabine (first compound 2.53 µM), 0.377; with Ruxolitinib + Decitabine (first compound 8 µM) it was 0.518.
